Reference: ChEMBL document CHEMBL1135413, “Arylamidrazones as novel corticotropin releasing factor receptor antagonists” (J Med Chem, 2002)

Molecular target: T1, Corticotropin-releasing factor receptor 1 (Homo sapiens, UniProt P34998)
T1 sequence (P34998 whole entry): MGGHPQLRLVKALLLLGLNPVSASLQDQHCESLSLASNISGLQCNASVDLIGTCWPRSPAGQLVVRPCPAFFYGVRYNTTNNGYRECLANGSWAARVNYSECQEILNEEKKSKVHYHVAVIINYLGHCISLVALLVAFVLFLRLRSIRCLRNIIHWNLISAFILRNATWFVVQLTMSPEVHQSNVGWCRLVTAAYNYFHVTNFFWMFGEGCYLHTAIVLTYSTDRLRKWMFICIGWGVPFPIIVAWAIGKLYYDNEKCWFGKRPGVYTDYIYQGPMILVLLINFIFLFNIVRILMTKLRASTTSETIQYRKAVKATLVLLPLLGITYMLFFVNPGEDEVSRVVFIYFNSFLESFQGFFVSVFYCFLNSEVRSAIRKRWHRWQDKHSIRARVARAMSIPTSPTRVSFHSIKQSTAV
Experiment: Binding affinity against human Corticotropin releasing factor receptor 1

Compound | Ki
C#Cc1cccc(/N=C(/NNc2ccccc2C)C(C)=O)c1 | 0.062 µM
C#Cc1cccc(/N=C(/NNc2ccccc2Cl)C(C)=O)c1 | 0.035 µM
CC(=O)C(=NNc1ccccc1)Nc1ccccc1 | 6.23 µM
CC(=O)/C(=N\c1cccc(C)c1)NNc1ccccc1C | 0.526 µM
CC(=O)C(=NNc1ccccc1C(F)(F)F)Nc1cccc(Cl)c1 | 0.538 µM
CC(=O)/C(=N\Nc1ccccc1C)Oc1cccc(Cl)c1 | > 10 µM
CC(=O)C(=NNc1ccccc1S(C)(=O)=O)Nc1cccc(Cl)c1 | > 10 µM
CC(=O)/C(=N\Nc1ccccc1)Oc1cccc(Cl)c1 | > 10 µM
CC(=O)C(=NNc1ccccc1S(N)(=O)=O)Nc1cccc(Cl)c1 | > 10 µM
CC(=O)/C(=N\c1cccc(Cl)c1)NNc1ccc(Br)cc1 | 1.46 µM
CC(=O)/C(=N\c1cccc(F)c1)NNc1ccccc1C(F)(F)F | 0.197 µM
CC(=O)/C(=N\Nc1ccccc1C(F)(F)F)Oc1cccc(Cl)c1 | > 10 µM
CC(=O)C(=NNc1ccccc1[N+](=O)[O-])Nc1cccc(Cl)c1 | 0.051 µM
CC(=O)/C(=N\c1cccc(F)c1)NNc1ccccc1Cl | 0.043 µM
CC(=O)/C(=N\Nc1ccccc1C#N)Nc1ccc(Cl)cc1 | 2.21 µM
CC(=O)/C(=N\Nc1ccccc1C#N)N(C)c1cccc(Cl)c1 | > 10 µM
C#Cc1cccc(NC(=NNc2ccccc2C(F)(F)F)C(C)=O)c1 | 0.066 µM
CC(=O)/C(=N\Nc1ccccc1)N(C)c1cccc(Cl)c1 | > 10 µM
CC(=O)/C(=N\Nc1ccccc1Cl)Sc1cccc(Cl)c1 | > 10 µM

Compound | Ki
CC(=O)C(=NNc1ccccc1C(F)(F)F)Nc1ccccc1Cl | > 10 µM
CSc1cccc(N/C(=N/Nc2ccccc2C)C(C)=O)c1 | > 10 µM
CC(=O)/C(=N\c1ccc(Cl)cc1)NNc1ccccc1 | > 10 µM
CC(=O)/C(=N\Nc1ccccc1C(F)(F)F)N(C)c1cccc(Cl)c1 | > 10 µM
CC(=O)C(=NNc1ccccc1C(F)(F)F)Nc1cccc(C(F)(F)F)c1 | > 10 µM
CC(=O)/C(=N\c1ccccc1Cl)NNc1ccccc1C#N | > 10 µM
CC(=O)/C(=N\Nc1ccccc1C)Sc1cccc(Cl)c1 | > 10 µM
CSc1cccc(N/C(=N/Nc2ccccc2Cl)C(C)=O)c1 | > 10 µM
COc1cccc(NC(=NNc2ccccc2C)C(C)=O)c1 | 1.4 µM
CC(=O)/C(=N\Nc1ccccc1C)N(C)c1cccc(Cl)c1 | > 10 µM
CCOc1cccc(NC(=NNc2ccccc2Cl)C(C)=O)c1 | > 10 µM
CC(=O)/C(=N\c1ccccc1Cl)NNc1ccccc1Cl | > 10 µM
CCOc1cccc(N/C(=N/Nc2ccccc2C)C(C)=O)c1 | > 10 µM
CC(=O)/C(=N\c1ccccc1)NNc1ccccc1Cl | 0.299 µM
CC(=O)/C(=N\Nc1ccccc1)Nc1cccc(Cl)c1 | 2.72 µM
CC(=O)/C(=N\c1ccc(Cl)cc1)NNc1ccccc1C(F)(F)F | > 10 µM
CC(=O)/C(=N\Nc1ccccc1C#N)Oc1cccc(C)c1 | 0.65 µM
CC(=O)/C(=N\Nc1ccccc1Cl)N(C)c1cccc(Cl)c1 | > 10 µM
CC(=O)/C(=N\c1ccccc1)NNc1ccccc1C(F)(F)F | 2.26 µM

Compound | Ki
COc1cccc(N/C(=N/Nc2ccccc2C(F)(F)F)C(C)=O)c1 | 6.95 µM
CC(=O)/C(=N\c1cccc(C#N)c1)NNc1ccccc1C | > 10 µM
CC(=O)/C(=N\c1ccccc1Cl)NNc1ccccc1 | > 10 µM
COc1cccc(N/C(=N/Nc2ccccc2Cl)C(C)=O)c1 | 0.652 µM
CC(=O)C(=NNc1ccccc1Cl)Nc1cccc(Cl)c1 | 0.417 µM
CC(=O)/C(=N\Nc1ccccc1[N+](=O)[O-])Oc1cccc(Cl)c1 | > 10 µM
CCOc1cccc(NC(=NNc2ccccc2C(F)(F)F)C(C)=O)c1 | > 10 µM
CC(=O)/C(=N\c1cccc(C(F)(F)F)c1)NNc1ccccc1C | 0.291 µM
COc1cccc(NC(=NNc2ccccc2)C(C)=O)c1 | > 10 µM
CC(=O)/C(=N\Nc1ccccc1C#N)Nc1cccc(Cl)c1 | 0.415 µM
CC(=O)/C(=N\c1ccccc1)NNc1ccccc1C | 0.526 µM
CC(=O)C(=NNc1ccccc1C(F)(F)F)Nc1cccc(C#N)c1 | > 10 µM
CC(=O)/C(=N\c1cccc(C)c1)NNc1ccccc1Cl | 0.115 µM
CC(=O)/C(=N\c1ccccc1Cl)NNc1ccccc1C | > 10 µM
CC(=O)/C(=N\c1cccc(F)c1)NNc1ccccc1C | 0.043 µM
CC(=O)C(=NNc1ccccc1C#N)Nc1ccccc1 | 1.08 µM
CSc1cccc(N/C(=N/Nc2ccccc2C(F)(F)F)C(C)=O)c1 | > 10 µM
CC(=O)/C(=N\c1ccc(Cl)cc1)NNc1ccccc1C | 1.83 µM
